The values that follow come from patent USRE48461E1, “Modulation of androgen receptor expression” (Ionis Pharmaceuticals, Inc., priority 2012, dated 2021).

Oligonucleotides are written 5' to 3', each unit as a sugar letter and its base; * is a phosphorothioate linkage, no mark a phosphodiester; rarer units and linkages stand in square brackets, end groups in braces. Plain capitals give the bases only. k = constrained ethyl (cEt); [5mC] = 5-methylcytosine; d = 2'-deoxy (DNA)

For data set [1] the following is noted: cynomolgus monkey, in vivo, sc, 40 mg/kg.
Procedure: The monkeys were 2-4 years old and weighed between 2 and 4 kg. Thirteen groups of four randomly assigned male cynomolgus monkeys each were injected subcutaneously with ISIS oligonucleotide or PBS. PBS solution or ISIS oligonucleotides, at a dose of 40 mg/kg, were administered with a loading regimen consisting of four doses on the first week of the study (days 1, 3, 5, and 7), followed by a maintenance regimen consisting of once weekly administration starting on Day 14 (weeks 2 to 6). Subcutaneous injections were performed in clock-wise rotations at 4 sites on the back; one site per dose. The injection sites were delineated by tattoo, while sedated using ketamine, and were separated by a minimum of 3 cm.
To evaluate any inflammatory effect of ISIS oligonucleotides in cynomolgus monkeys, the monkeys were fasted overnight. Approximately, 1.5 mL of blood samples were collected from all the study groups on day 44. Blood was collected in tubes without anticoagulant for serum separation. The tubes were kept at room temperature for a minimum of 90 min and then centrifuged at 3,000 rpm for 10 min. C-reactive protein (CRP), which is synthesized in the liver and which serves as a marker of inflammation, was measured on day 43 using a Toshiba 120FR NEO chemistry analyzer (Toshiba Co., Japan). Complement C3 was also measured similarly, and the data is presented as a percentage of baseline values.
For data set [2] the following is noted: cynomolgus monkey, in vivo, sc, 40 mg/kg. This is another data set of the same source.
Procedure: (§4) Prior to the study, the monkeys were kept in quarantine for a 30-day period, during which the animals were observed daily for general health. The monkeys were 2-4 years old and weighed between 2 and 4 kg. Thirteen groups of four randomly assigned male cynomolgus monkeys each were injected subcutaneously with ISIS oligonucleotide or PBS. PBS solution or ISIS oligonucleotides, at a dose of 40 mg/kg, were administered with a loading regimen consisting of four doses on the first week of the study (days 1, 3, 5, and 7), followed by a maintenance regimen consisting of once weekly administration starting on Day 14 (weeks 2 to 6). Subcutaneous injections were performed in clock-wise rotations at 4 sites on the back; one site per dose. The injection sites were delineated by tattoo, while sedated using ketamine, and were separated by a minimum of 3 cm.
To evaluate the effect of ISIS oligonucleotides on kidney function, the monkeys were fasted overnight. Approximately, 1.5 mL of blood samples were collected from all the study groups on day 44. Blood was collected in tubes without anticoagulant for serum separation. The tubes were kept at room temperature for a minimum of 90 min and then centrifuged at 3,000 rpm for 10 min. Levels of BUN and creatinine were measured using a Toshiba 120FR NEO chemistry analyzer (Toshiba Co., Japan).
The conditions of data set [3]: cynomolgus monkey, in vivo, sc, 40 mg/kg. This is another data set of the same source.
For data set [4] the following is noted: cynomolgus monkey, in vivo, sc, 40 mg/kg. The source holds these as a separate data set.
For data set [5] the following is noted: cynomolgus monkey, in vivo, sc, 40 mg/kg. The source holds these as a separate data set.
Procedure: as §4
To evaluate any effect of ISIS oligonucleotides in cynomolgus monkeys on hematologic parameters, blood samples of approximately 0.5 mL of blood was collected day 44 from each of the available study animals in tubes containing K2-EDTA. Samples were analyzed for red blood cell (RBC) count, white blood cells (WBC) count, platelet count, hemoglobin content and hematocrit, using an ADVIA2120i hematology analyzer (SIEMENS, USA).
For data set [6] the following is noted: cynomolgus monkey, in vivo, sc, 40 mg/kg. The source holds these as a separate data set.
Procedure: as §4
Kidney function was also assessed by urinalysis. Fresh urine from all animals was collected on day 44 using a clean cage pan on wet ice. Food was removed overnight the day before fresh urine collection was done but water was supplied. The total protein and creatinine levels were measured using a Toshiba 120FR NEO automated chemistry analyzer (Toshiba Co., Japan) and the protein to creatinine ratio was calculated.
A further data set has as its system KLK3 mRNA. In words: KLK3 mRNA (AR target gene) in C4-2B MR cells. Format: cell-based, human. Particulars: C4-2B MR cells, 0.04-5.00 μM.
The next data set deals with C4-2B MR cells. Briefly: Proliferation of MDV3100-resistant C4-2B cells (CellTiter 96). In kind it is cell-based, human. Particulars: 0.04-5.00 μM, 6 days. The procedure:
ISIS 549372, ISIS 549434, ISIS 549458, and ISIS 554221 were each added to the culture media at 0.04 μM, 0.20 μM, 1.00 μM, and 5.00 μM concentration of antisense oligonucleotide. ISIS 347526 was included as a negative control. After a treatment period of 6 days, the proliferative capacity of the cancer cells was measured with using CellTiter 96® AQueous One Solution Cell Proliferation kit (Promega), following the manufacturer's instructions. Results are presented in Table 41 as percent inhibition of proliferation, relative to non-treated cells.

The subject of another data set is CWR22-RV1 cells. In words: CWR22-RV1 cell proliferation (CellTiter 96). In kind it is cell-based, human. Conditions: RNAiMax, 6 days. The method, then:
(§1) CWR22-RV1 cells were plated and transfected using RNAiMax reagent (Life Technologies) with ISIS oligonucleotides at 1.7 nM, 5.0 nM, 16.7 nM, or 50 nM concentrations. ISIS 347526 was included as a negative control. After a treatment period of 6 days, the target reduction and proliferative capacity of the cancer cells was measured.
(§2) Antisense inhibition of AR full-length mRNA was measured with the RTS3559 primer probe set. The results are presented in Table 63 as percent inhibition relative to non-treated cells. The reduction in V7 splice variant of the AR mRNA was also measured by RT-PCR using SYBR Green staining (Hu, R. et al., Cancer Res. 2009. 69: 16-22). The results are presented in Table 64, as percent reduction, relative to non-treated cells. Cell proliferation was measured with CellTiter 96® AQueous One Solution Cell Proliferation kit (Promega), following the manufacturer's instructions. Results are presented in Table 65 as percent inhibition of proliferation, relative to non-treated cells.

The test system of a further data set is full-length AR. In words: Western blot of full-length AR in MDV3100-resistant C4-2B cells. Format: cell-based, human. Particulars: C4-2B MR cells (Example 16). The method, then:
ISIS 549372, ISIS 549434, and ISIS 554221 at 1 μM concentration of antisense oligonucleotide were each added to the culture media at 1 μM concentration for free uptake by the cells. After a treatment period of 2 days, cells were harvested in RIPA buffer containing protease inhibitors. The presence of bands for full-length AR, as well as the variant form, AR-V7, was detected by western blot using AR antibody (N-20, Santa Cruz).
Western analysis of full-length AR, as well as the AR-V7 variant, was also conducted in a manner similar to the assay described above.
On the technique in general: In western blotting, separated proteins are transferred to a membrane and probed.

In a further data set the test system is KLK2 mRNA. In words: KLK2 mRNA (AR target gene) in C4-2B MR cells. In kind it is cell-based, human. Conditions: C4-2B MR cells, 0.04-5.00 μM.
In the next data set the test system is AR mRNA. Briefly: AR mRNA in C4-2B cells by free uptake (hAR_LTS00943). Format: cell-based, human. Conditions: 24 hrs; for Percent inhibition of AR full-length mRNA: free uptake. The procedure:
(§3) Cells were plated at a concentration of 1,000 cells/well in 96-well plates to measure cell proliferation, and at 4,000 cells/well to measure target reduction. ISIS 549458, ISIS 549372, ISIS 549434, and ISIS 554221 were added individually at 0.04 μM, 0.20 μM, 1.00 μM, or 5.00 μM. After an incubation period of 24 hrs, mRNA levels were measured using hAR_LTS00943.

The subject of another data set is AR full-length mRNA. In words: AR full-length mRNA in CWR22-RV1 cells (RNAiMax, RTS3559). Particulars: 6 days. Format: cell-based, human. The method, then: as §1, §2
Another data set relates to C4-2B cells. In words: C4-2B cell proliferation by free uptake (MTT). Format: cell-based, human. Particulars: day 6. The procedure:
as §3
On day 6, cells plated for measuring proliferation were incubated with MTT reagent until the development of color. Color intensity was measured using a spectrophotometer at 490 nm.

The next data set has as its system total AR mRNA. Briefly: Total (full-length) AR mRNA in C4-2B MR cells, free uptake. Conditions: C4-2B MR cells, 0.04-5.00 μM free uptake, 24 hrs. In kind it is cell-based, human. The method, then: Cells were plated at a density of 40,000 cells per well in 96-well plates and cultured in RPMI1640 medium with 10% fetal bovine serum. […] ISIS 549372, ISIS 549458, ISIS 549434, and ISIS 554221 were each added at 0.04 μM, 0.20 μM, 1.00 μM, and 5.00 μM concentrations of antisense oligonucleotide to culture media for free uptake by the cells. […] After a treatment period of 24 hrs, total AR mRNA levels were measured by quantitative real-time PCR using primer probe set RTS3559.

Data set [7] concerns V7 splice variant of the AR mRNA. In words: AR V7 splice variant mRNA in CWR22-RV1 cells (RT-PCR SYBR Green). Format: cell-based, human. Conditions: RNAiMax, 6 days. The method, then: as §1, §2

In the case of “GATTTAATGGTTGCAA (cEt gapmer chemistry, further chemistry not given here) [ISIS 586124]”, in data set [1], the “C3 (% of baseline)” value is reported as 93 % of baseline and the CRP was found to be 4.0 mg/dL. In [2], the “Plasma BUN” value came to 23.8 mg/dL and the “Plasma Creatinine” value came to 0.87 mg/dL. Also, in [3], the “Body Wt” value is on record as 2.5 kg, the Heart weight worked out at 9.4 g, the Kidney weight worked out at 14 g and the Liver weight came out at 58 g. In data set [3], the “Mesenteric lymph nodes weight” value was determined as 2.8 g and the Spleen weight turned out to be 3.3 g. In data set [4], this substance yielded an ALT of 56 IU/L, an AST of 94 IU/L and an Albumin of 3.9 g/dL. In addition, in data set [5], the HCT was found to be 45%, the Hemoglobin was 13.6 g/dL, the Platelets is 391000 µL and the RBC turned out to be 5.8e+06 µL. Besides, the WBC in [5] turned out to be 10400 µL. Further, in [6], the Urine protein/creatinine ratio was determined as 0.01.
“ISIS 584149: antisense compound targeted to human AR (GTCAATATCAAAGCAC; 3-10-3 (S)-cEt gapmer, further chemistry not given here)”: in data set [1], the “C3 (% of baseline)” value is listed as 110 % of baseline and the CRP is listed as 1.7 mg/dL. Also, in data set [2], the “Plasma BUN” value stood at 26.4 mg/dL and the “Plasma Creatinine” value is given as 0.85 mg/dL. In [3], the “Body Wt” value worked out at 2.5 kg, the Heart weight stood at 9.3 g, the Kidney weight came to 13 g and the Liver weight is listed as 60 g. Besides, in data set [3], the “Mesenteric lymph nodes weight” value is reported as 2.1 g and the Spleen weight is recorded as 2.2 g. In data set [4], the ALT was found to be 57 IU/L, the AST is given as 58 IU/L and the Albumin came to 4.5 g/dL. In [5], this substance returned an HCT of 45%, a Hemoglobin of 13.7 g/dL, a Platelets of 478000 µL and an RBC of 5.7e+06 µL. Further, in data set [5], the WBC worked out at 11300 µL. In addition, the Urine protein/creatinine ratio in data set [6] was determined as 0.01.
With “ISIS 583918: antisense compound targeted to human AR (AGTCGCGACTCTGGTA; 3-10-3 (S)-cEt gapmer, further chemistry not given here)”, in data set [1], the “C3 (% of baseline)” value is 89 % of baseline and the CRP was 3.5 mg/dL. Also, in data set [2], the “Plasma BUN” value is 24.5 mg/dL and the “Plasma Creatinine” value is reported as 0.87 mg/dL. In data set [3], the “Body Wt” value stood at 2.5 kg, the Heart weight came out at 8.9 g, the Kidney weight is 12 g and the Liver weight was 60 g. In data set [3], the “Mesenteric lymph nodes weight” value amounted to 3.5 g and the Spleen weight is recorded as 4.6 g. Besides, in data set [4], the ALT was 75 IU/L, the AST amounted to 73 IU/L and the Albumin worked out at 4.1 g/dL. In data set [5], this substance displayed an HCT of 46%, a Hemoglobin of 13.3 g/dL, a Platelets of 435000 µL and an RBC of 5.8e+06 µL. Also, the WBC in data set [5] is 12700 µL. For the same substance, in [6], the Urine protein/creatinine ratio was found to be 0.01.
On to “ISIS 584163: antisense compound targeted to human AR (GAACATTATTAGGCTA; 3-10-3 (S)-cEt gapmer, further chemistry not given here)”, for which, in data set [1], the “C3 (% of baseline)” value is 102 % of baseline and the CRP is listed as 1.0 mg/dL. In addition, in [2], the “Plasma BUN” value is listed as 22.4 mg/dL and the “Plasma Creatinine” value worked out at 0.82 mg/dL. Moreover, in data set [3], the “Body Wt” value is 2.5 kg, the Heart weight turned out to be 8.4 g, the Kidney weight amounted to 15 g and the Liver weight is on record as 54 g. Also, in data set [3], the “Mesenteric lymph nodes weight” value turned out to be 3.3 g and the Spleen weight is on record as 3.2 g. In data set [4], this substance gave an ALT of 50 IU/L, an AST of 68 IU/L and an Albumin of 4.2 g/dL. In data set [5], this substance came in with an HCT of 44%, a Hemoglobin of 12.8 g/dL, a Platelets of 461000 µL and an RBC of 5.5e+06 µL. Besides, the WBC in [5] worked out at 9100 µL. Besides, in data set [6], the Urine protein/creatinine ratio was 0.01.
With “CTAAACTTCCCGTGGC (k[5mC]*kT*kA*dA*dA*d[5mC]*dT*dT*d[5mC]*d[5mC]*d[5mC]*dG*dT*kG*kG*k[5mC]) [ISIS 549434, targets 3'-end of exon 8]”, the “AR target gene KLK3 mRNA levels” value in the data set on KLK3 mRNA is on record as “reduced target gene levels in a dose dependent manner more extensively than treatment with ISIS 554221”. The “proliferation of C4-2B MR cells” value in the data set on C4-2B MR cells is given as “reduced proliferation of the cells in a dose dependent manner more extensively than treatment with ISIS 554221”. The “Percent inhibition of cell proliferation” value in the data set with CWR22-RV1 cells (dose 5.0 nM) came to 15%; in the data set on CWR22-RV1 cells (dose 16.7 nM), 13%; with CWR22-RV1 cells (dose 50.0 nM), 38%; in the data set with C4-2B cells (dose 0.04 μM) it was 0%; in the data set with C4-2B cells (dose 0.20 μM), 14%; in the data set with C4-2B cells (dose 1.00 μM) it was 35%. Besides, the “Percent inhibition of cell proliferation” value in the data set on C4-2B cells (dose 5.00 μM) is 37%. Further, the “levels of full-length AR (Western analysis)” value in the data set with full-length AR is given as “reduced levels of full-length AR”. Moreover, the “AR target gene KLK2 mRNA levels” value in the data set with KLK2 mRNA is “reduced target gene levels in a dose dependent manner more extensively than treatment with ISIS 554221”. For the same substance, the “AR mRNA expression” value with AR mRNA (free uptake 0.04-5.00 μM) is “inhibited AR mRNA expression more potently than ISIS 554221”. For the same substance, the “Percent inhibition of AR full-length mRNA” value with AR mRNA (dose 0.04 μM) is on record as 10%; in the data set on AR mRNA (dose 0.20 μM), 35%; in the data set on AR mRNA (dose 1.00 μM), 52%; with AR mRNA (dose 5.00 μM) it was 55%; in the data set with AR full-length mRNA (dose 5.0 nM), 46%; in the data set on AR full-length mRNA (dose 16.7 nM) it was 69%. Moreover, the “Percent inhibition of AR full-length mRNA” value in the data set on AR full-length mRNA (dose 50.0 nM) is 86%. For the same substance, in the data set with total AR mRNA, the “total AR transcript levels” value is “reduced total AR transcript levels in a dose dependent manner more extensively than treatment with ISIS 554221”. The “Percent inhibition of AR splice variant, V7” value in [7] (dose 5.0 nM) amounted to 20%; in [7] (dose 16.7 nM) it was 4%; in data set [7] (dose 50.0 nM), 23%.
